Literature values as cited in US20210299070A1, “METHODS OF TREATING CREATINE T[…]” (Jnana Therapeutics, Inc., priority 2018, published 2021).

Assays:
[1] = patients with GAMT or AGAT deficiency; oral supplements
[2] = patients with CID (creatine transporter deficiency); oral supplements

SMILES: CN(CC(=O)O)C(=N)N.O [creatine monohydrate]
- clinical symptoms [1]: clinical symptoms improved
- response to treatment [2]: did not respond to treatment
